Values quoted from earlier work as cited in patent US11111208B2, “Process for the preparation of safinamide mesylate intermediate” (RK Pharma Solutions LLC, priority 2019, dated 2021).
Structures can show the parent of a compound that is named as a salt. Where two headings read alike, the source gives them in different places.

How the values were obtained:
[1] = not given; remark: listed apart in the source

Row | solubility (in dimethyl sulfoxide) | solubility (in ethanol) | solubility (in ethyl acetate) | solubility (in methanol) | solubility (in water) | solubility ([1]; aqueous buffer pH 1.2) | solubility ([1]; aqueous buffer pH 4.5) | solubility ([1]; aqueous buffer pH 6.8) [µg/mL] | solubility ([1]; aqueous buffer pH 7.5) [µg/mL] | Structure (SMILES) | neuroprotective and neurorescuing effects (MPTP-treated mice) | neuroprotective and neurorescuing effects (rat kainic acid model) | neuroprotective and neurorescuing effects (gerbil ischemia model)
1 | freely soluble | sparingly soluble | practically insoluble | freely soluble | freely soluble | highly soluble | highly soluble | < 400 | < 400 | C[C@H](NCc1ccc(OCc2cccc(F)c2)cc1)C(N)=O [Safinamide mesylate, (S)-2-[[4-[(3-fluorophenyl)methoxy]phenyl]methyl]aminopropanamide methanesulfonate (1:1)] | – | – | –
2 | – | – | – | – | – | – | – | – | – | C[C@H](NCc1ccc(OCc2cccc(F)c2)cc1)C(N)=O [Safinamide, (S)-2-[4-(3-fluorobenzyloxy)-benzylamino]propanamide] | neuroprotective and neurorescuing effects | neuroprotective and neurorescuing effects | neuroprotective and neurorescuing effects
